Tested on: T1, urease
T1 construct: gene urea amidohydrolase; the jack bean enzyme is only a guess from the usual assay; Helicobacter pylori is named only as background
Assay: phenol-hypochlorite assay, […] nm
Type: biochemical, Canavalia ensiformis
Settings: 17 mM urea, 30 °C, 50 min; enzyme source not stated

NC(N)=S [Thiourea]
Antiurease / IC50 μg mL^-1: 11.57 ± 0.68 µg/mL

— publication PMC12680549, “Impact of Seasonal Variation on Antioxidant, Enzyme Inhibitory, and Anti‐Inflammatory Potentials of Cistus creticus Leaf Extracts” (ChemistryOpen, 2025)
